Read-outs that look alike come from different tables or passages of the source.
Key:
Sclerophoma pithyophila = experiment: Control of molds and blue stain fungi in stick test (beech sticks); details: minimum concentration producing a score less than or equal to 1; dosages 50-1000 ppm
Procedure: (§1) The compounds shown in Table 1 were dissolved in 50% ethanol and a dilution series was made using the same solvent. In 25 ml of each dilution, one oven-dried beech stick (73×18×2 mm) was drenched until saturated.
(§2) Test dosages were 50, 100, 250, 500, and 1000 ppm for blue stain fungi which were Aureobasidium pullulans and Sclerophoma pithyophila. Test dosages for the molds used (Trichoderma viride, Aspergillus niger) were 250, 500, 1000, 2500, and 5000 ppm.
(§3) After three hours the test solution was poured off and each stick was allowed to dry in a sterile laminar air flow. In each Petri dish one stick was placed on malt agar previously seeded with inoculum. Two drops of fungal or spore suspension were pipetted on the upper surface of the stick. The Petri dishes were then incubated at 22° C. and 90% relative humidity. The treated sticks were evaluated after sufficient growth of the fungus on the untreated control sticks. The following score system was used to rate the effectiveness of the compounds:
(§4) 0=stick free of fungal growth
(§5) 1=traces of fungal growth on stick
(§6) 2=slight fungal growth (5 to 25% of the surface covered)
(§7) 3=moderate fungal growth (25 to 50% of the surface covered)
(§8) 4=vigorous fungal growth (greater than 50% of the surface covered).
(§9) For purposes of comparison of these compounds, these values were converted to threshold ranges. The threshold value in this system is defined as the minimum concentration of a particular compound which produces a score less than or equal to 1.

Trichoderma viride = experiment: as above; details: minimum concentration producing a score less than or equal to 1; dosages 250-5000 ppm
Procedure: as §1, §2, §3, §4, §5, §6, §7, §8, §9

Aureobasidium pullulans = experiment: as above; details: minimum concentration producing a score less than or equal to 1; dosages 50-1000 ppm
Procedure: as §1, §2, §3, §4, §5, §6, §7, §8, §9

Aspergillus niger = experiment: as above; details: minimum concentration producing a score less than or equal to 1; dosages 250-5000 ppm
Procedure: as §1, §2, §3, §4, §5, §6, §7, §8, §9

[1] = test system: molds and blue-stain fungi; experiment: In vitro activity against molds and blue-stain fungi, poison plate assay (MIC); type: cell-based; details: malt extract agar, complete inhibition
Procedure, shortened: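 Poison plate format: compound diluted in sterile water and mixed into malt extract agar, then plates inoculated with each fungus. Growth inhibition scored at each concentration to give the MIC.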

Coriolus versicolor = experiment: Activity against wood-rotting fungi, weight loss of impregnated wood blocks; details: eight weeks at 22° C. and 70% relative humidity
Procedure: (§10) Sapwood blocks (50×20×6 mm) of Scots pine (Pinus sylvestris) and beech (Fagus sylvatica) were oven-dried at 104° C. The blocks were cooled, weighed, and impregnated with the test compound, by a vacuum treatment. Each concentration of the test compounds was applied to 7 replicates. By reweighing after each treatment, the uptake of active ingredient was calculated. Badly treated wood was discarded. For fixation of the active compound, the treated blocks were kept in a closed container for two weeks. The container was opened and the wood was dried for two more weeks. The test blocks were sterilized by gamma-irradiation (1.2 Mrad). Each treated block was placed on a mesh in an inoculated Petri dishes of malt agar, with an untreated (control) block. All the blocks were exposed to fungal attack for eight weeks at 22° C. and 70% relative humidity. At the end of the incubation period, the blocks were freed from adhering mycelium, oven dried at 104° C., allowed to cool, and weighed. The percentage weight loss of each block was calculated. Invalid results, due to waterlogging or insufficient moisture content, were not taken into account. The average weight loss of the treated blocks compared to the control blocks appears in Table 8.

Coniophora puteana = experiment: as above; details: eight weeks at 22° C. and 70% relative humidity
Procedure: as §10

[2] = test system: mixed spore suspension: Aureobasidium pullulans, Aspergillus amstelodami, Ceratocystis pilifera, Cladosporium sp., Penicillium sp., Sclerophomas entoxylina …; experiment: Control of molds and sapstain fungi in mini-board test; design: key to Surface score of treated mini-boards, 3 week incubation, 1500 ppm / Surface score of treated mini-boards, 3 week incubation, 2500 ppm: 0: Free of fungal growth; 1: Traces of fungal growth; 2: Little fungal growth; 3: Moderate fungal growth; 4: Vigorous to maximum growth (all surfaces covered with fungal growth)
[3] = higher treatment level, uptake 1136-1222 g.a.i./m3, control blocks lost 26-44%
[4] = lower treatment level, uptake 450-496 g.a.i./m3, control blocks lost 29-38%
[5] = higher treatment level, uptake 1271-1534 g.a.i./m3, control blocks lost 20-37%
[6] = lower treatment level, uptake 526-582 g.a.i./m3, control blocks lost 17-42%

C[S+]1CCON=C1c1ccc(Cl)cc1 (centres unmarked) [Compound 1]
Threshold value in stick test, SCLEROPHOMA PYTHIOPHILA (Sclerophoma pithyophila): 100-250 ppm | Threshold value in stick test, TRICHODERMA VIRIDE (Trichoderma viride): 2500-5000 ppm | Threshold value in stick test, AUREOBASIDIUM PULLULANS (Aureobasidium pullulans): >1000 ppm | Threshold value in stick test, A[…] (Aspergillus niger): 1000-2500 ppm

[O-][S+]1CCON=C1c1ccc(Cl)c(Cl)c1 (centres unmarked) [Compound 4]
MIC (ppm) against A. amstelodami [1]: 10 ppm | MIC (ppm) against A. niger ([1]; A. niger): 2.5 ppm | MIC (ppm) against A. pullulans ([1]; A. pullulans): 10 ppm | MIC (ppm) against A. versicolor [1]: 5 ppm | MIC (ppm) against C. cladosporioides ([1]; C. cladosporioides): 10 ppm | MIC (ppm) against C. pilifera [1]: 5 ppm | MIC (ppm) against F. solani [1]: 10 ppm | MIC (ppm) against G. candidum ([1]; G. candidum): 25 ppm | MIC (ppm) against P. purpurogenum [1]: 10 ppm | MIC (ppm) against P. variotii [1]: 10 ppm | MIC (ppm) against P. violacea [1]: 25 ppm | MIC (ppm) against S. atra [1]: 2.5 ppm | MIC (ppm) against S. entoxylina [1]: 10 ppm | MIC (ppm) against T. viride ([1]; T. viride): 25 ppm | MIC (ppm) against U. atrum [1]: 25 ppm | Threshold value in stick test, SCLEROPHOMA PYTHIOPHILA (Sclerophoma pithyophila): 50-100 ppm | Threshold value in stick test, TRICHODERMA VIRIDE (Trichoderma viride): 500-1000 ppm | Threshold value in stick test, AUREOBASIDIUM PULLULANS (Aureobasidium pullulans): 500-1000 ppm | Threshold value in stick test, A[…] (Aspergillus niger): 250-500 ppm | % weight loss, treated blocks (Coriolus) (Coriolus versicolor; [3]): 35% | % weight loss, treated blocks (Coriolus) (Coriolus versicolor; [4]): 35% | % weight loss, treated blocks (Coniophora) (Coniophora puteana; [5]): 0.3% | % weight loss, treated blocks (Coniophora) (Coniophora puteana; [6]): 0.3%

[O-][S+]1CCON=C1c1cccs1 (centres unmarked) [Compound 8]
MIC (ppm) against A. amstelodami [1]: 10 ppm | MIC (ppm) against A. niger ([1]; A. niger): 25 ppm | MIC (ppm) against A. pullulans ([1]; A. pullulans): >25 ppm | MIC (ppm) against A. versicolor [1]: 10 ppm | MIC (ppm) against C. cladosporioides ([1]; C. cladosporioides): >25 ppm | MIC (ppm) against C. pilifera [1]: 5 ppm | MIC (ppm) against F. solani [1]: 25 ppm | MIC (ppm) against G. candidum ([1]; G. candidum): >25 ppm | MIC (ppm) against P. purpurogenum [1]: >25 ppm | MIC (ppm) against P. variotii [1]: >25 ppm | MIC (ppm) against P. violacea [1]: 25 ppm | MIC (ppm) against S. atra [1]: 10 ppm | MIC (ppm) against S. entoxylina [1]: 10 ppm | MIC (ppm) against T. viride ([1]; T. viride): >25 ppm | MIC (ppm) against U. atrum [1]: 25 ppm | Surface score of treated mini-boards, 3 week incubation, 1500 ppm [2]: 0 | Surface score of treated mini-boards, 6 week incubation, 1500 ppm [2]: 0.8 | Surface score of treated mini-boards, 3 week incubation, 2500 ppm [2]: 0 | Surface score of treated mini-boards, 6 week incubation, 2500 ppm [2]: 0.4 | Threshold value in stick test, SCLEROPHOMA PYTHIOPHILA (Sclerophoma pithyophila): 50-100 ppm | Threshold value in stick test, TRICHODERMA VIRIDE (Trichoderma viride): 500-1000 ppm | Threshold value in stick test, AUREOBASIDIUM PULLULANS (Aureobasidium pullulans): 250-500 ppm | Threshold value in stick test, A[…] (Aspergillus niger): 250-500 ppm | % weight loss, treated blocks (Coriolus) (Coriolus versicolor; [3]): 3.5% | % weight loss, treated blocks (Coriolus) (Coriolus versicolor; [4]): 24% | % weight loss, treated blocks (Coniophora) (Coniophora puteana; [5]): 0.7% | % weight loss, treated blocks (Coniophora) (Coniophora puteana; [6]): 0.9%

C[S+]1CCON=C1c1cc(Cl)cc(Cl)c1 (centres unmarked) [Compound 19]
MIC (ppm) against A. amstelodami [1]: 25 ppm | MIC (ppm) against A. versicolor [1]: 25 ppm | MIC ([1]; Aspergillus niger, A. niger, read-out: MIC (ppm) against A. niger): 2.5 µg/mL | MIC ([1]; Aureobasidium pullulans, A. pullulans, read-out: MIC (ppm) against A. pullulans): 25 µg/mL | MIC (ppm) against C. pilifera [1]: 10 ppm | MIC ([1]; Cladosporium cladosporioides, C. cladosporioides, read-out: MIC (ppm) against C. cladosporioides): 25 µg/mL | MIC (ppm) against F. solani [1]: >25 ppm | MIC ([1]; Geotrichum candidum, G. candidum, read-out: MIC (ppm) against G. candidum): > 25 µg/mL | MIC (ppm) against P. purpurogenum [1]: 25 ppm | MIC (ppm) against P. variotii [1]: 25 ppm | MIC (ppm) against P. violacea [1]: >25 ppm | MIC (ppm) against S. atra [1]: 25 ppm | MIC (ppm) against S. entoxylina [1]: 25 ppm | MIC ([1]; Trichoderma viride, T. viride, read-out: MIC (ppm) against T. viride): 25 µg/mL | MIC (ppm) against U. atrum [1]: >25 ppm | Threshold value in stick test, SCLEROPHOMA PYTHIOPHILA (Sclerophoma pithyophila): 250-500 ppm | Threshold value in stick test, TRICHODERMA VIRIDE (Trichoderma viride): <250 ppm | Threshold value in stick test, AUREOBASIDIUM PULLULANS (Aureobasidium pullulans): 250-500 ppm | Threshold value in stick test, A[…] (Aspergillus niger): 250-500 ppm | % weight loss, treated blocks (Coriolus) (Coriolus versicolor; [3]): 87% | % weight loss, treated blocks (Coriolus) (Coriolus versicolor; [4]): 35% | % weight loss, treated blocks (Coniophora) (Coniophora puteana; [5]): −0.3% | % weight loss, treated blocks (Coniophora) (Coniophora puteana; [6]): 0.9%

C[S+]1CCON=C1c1ccc(C(F)(F)F)cc1 (centres unmarked) [Compound 25]
Threshold value in stick test, SCLEROPHOMA PYTHIOPHILA (Sclerophoma pithyophila): 50-100 ppm | Threshold value in stick test, TRICHODERMA VIRIDE (Trichoderma viride): <250 ppm | Threshold value in stick test, AUREOBASIDIUM PULLULANS (Aureobasidium pullulans): 250-500 ppm | Threshold value in stick test, A[…] (Aspergillus niger): <250 ppm | % weight loss, treated blocks (Coriolus) (Coriolus versicolor; [3]): 21% | % weight loss, treated blocks (Coriolus) (Coriolus versicolor; [4]): 37% | % weight loss, treated blocks (Coniophora) (Coniophora puteana; [5]): −0.8% | % weight loss, treated blocks (Coniophora) (Coniophora puteana; [6]): −0.7%

O=S1(=O)CCON=C1c1cccs1 [Compound 34]
MIC (ppm) against A. amstelodami [1]: 5 ppm | MIC (ppm) against A. niger ([1]; A. niger): 5 ppm | MIC (ppm) against A. pullulans ([1]; A. pullulans): 25 ppm | MIC (ppm) against A. versicolor [1]: 5 ppm | MIC (ppm) against C. cladosporioides ([1]; C. cladosporioides): 25 ppm | MIC (ppm) against C. pilifera [1]: 2.5 ppm | MIC (ppm) against F. solani [1]: 25 ppm | MIC (ppm) against G. candidum ([1]; G. candidum): 25 ppm | MIC (ppm) against P. purpurogenum [1]: 10 ppm | MIC (ppm) against P. variotii [1]: 25 ppm | MIC (ppm) against P. violacea [1]: 25 ppm | MIC (ppm) against S. atra [1]: 5 ppm | MIC (ppm) against S. entoxylina [1]: 5 ppm | MIC (ppm) against T. viride ([1]; T. viride): >25 ppm | MIC (ppm) against U. atrum [1]: 25 ppm | Surface score of treated mini-boards, 3 week incubation, 1500 ppm [2]: 0 | Surface score of treated mini-boards, 6 week incubation, 1500 ppm [2]: 2.4 | Surface score of treated mini-boards, 3 week incubation, 2500 ppm [2]: 0 | Surface score of treated mini-boards, 6 week incubation, 2500 ppm [2]: 2.4

— patent publication US6372297B1, “Wood preservative oxathiazines” (Uniroyal Chemical Company, Inc., priority 1993, dated 2002)
